Results reported in patent publication US10870647B2, “Imidazopyridine derivative, method for preparing same, and pharmaceutical composition containing same as active ingredient for preventing or treating cancer” (DAEGU-GYEONGBUK MEDICAL INNOVATION FOUNDATION, priority 2016, dated 2020).
Read-outs that look alike come from different tables or passages of the source.

Legend:
Format in all cases: cell-based
MDA-MB-231 = experiment: Real time cell proliferation, IncuCyte ZOOM, 72 hours
A375 = experiment: Cancer cell proliferation inhibition, CCK-8, 72 hours
Procedure: (§1) MTS assay was performed to evaluate the cancer cell proliferation inhibition (cancer cell apoptosis) effect of the compounds of examples of the present invention. Particularly, the assay was performed using the cancer cell lines GIST-T1, GIST-T1/816, GIST-430, GIST-430/654, GIST-R1, GIST-R3, M-NFS-60, RetParental (Ba/F3), Retwt (Ba/F3), RetV804M (Ba/F3), RET (LC2/ad-CDC6), FYN (MCP-1), FYN (FN), MDA-MB-231, Huh7, K562, T315I(Ba/F3), SK-MEL-28 and A375. Cell culture was performed using a medium suitable for each cell line.
(§2) In the meantime, MDA-MB-231 and A375 cells were seeded in a 96well plate at the density of 2×10^3/100 μl/well, which stood for a day for attachment. The culture fluid was eliminated. After removing the culture medium, the medium was replaced with the culture medium containing the compounds of the present invention at 3-times serially diluted 9 concentrations (0.0015-10 μM) and the DMSO control, followed by incubation in a 37° C. CO2 incubator for 72 hours. On the other hand, K-562 and Ba/F3-T315I cells were seeded in a 96-well plate at the density of 1×10^4/90 μl/well. The plate containing K-562 cells was added with the culture medium containing the compounds of the present invention at 3-times serially diluted 9 concentrations (0.015-100 μM) and the DMSO control (10 μl/well). The plate containing Ba/F3-T315I cells was added with the culture medium containing the compounds of the present invention at 5-times serially diluted 9 concentrations (0.000256-100 μM) and the DMSO control (10 μl/well). The final concentration was made 0-10 μM and then the cells were cultured in a 37° C. CO2 incubator for 72 hours.
(§3) A375, K-562 and Ba/F3-T315I cells were added with CCK-8 solution at the concentration of 10 μl/well, followed by orbital shaking for 30 seconds. Then, the cells were cultured in a 37° C. CO2 incubator for 2 hours. OD450 was measured by using a microplate reader. The OD value of the well treated with the culture medium and CCK-8 solution alone was subtracted from the OD value measured above, followed by calculation of IC50 using GraphPad Prism 6 software.

T315I (Ba/F3) = target: T1, T315I (Ba/F3) (Homo sapiens, UniProt P00519, T315I, cells depend on it); experiment: as above; settings: read-out: T315I (Ba/F3) IC50
T1 construct: fused on or other part: P11274 (Breakpoint cluster region protein)
Procedure: as §1, §2, §3

K562 = experiment: as above
Procedure: as §1, §2, §3

Huh7 = experiment: Cancer cell proliferation inhibition, MTS assay, 72 hours; settings: Homo sapiens, Huh-7
Procedure: as §1
(§4) Other cell lines were seeded in a 96-well plate containing the corresponding medium appropriate for each cell line at the density of 3,000 cells/well, followed by culture in a 5% CO2 and 37° C. incubator for 24 hours. The compounds of examples of the present invention were added to each well at the concentration of from the highest volume of 50 μM to every step of serial dilution. The solvent control, dimethylsulfoxide (DMSO), was treated at the same concentration of 0.05% (v/v) as the volume used for the treatment of the compounds above. Each cell line was cultured for 72 hours. To investigate the cell viability, the MTS and PMS (phenazine methosulfate) mixture provided in CellTiter 96® AQuous Non-Radioactive Cell Proliferation Assay Kit (Promega) was added to each cell culture medium, followed by additional culture at 37° C. for 2 hours. Then, OD450 was measured. Based on OD of the solvent control cells not treated with any compounds of the present invention, the cell proliferation inhibition rate was calculated according to the treatment concentration of each compound. At this time, the concentration of each compound that was able to inhibit cancer cell proliferation up to 50% was determined as IC50 (uM). IC50 of each compound was determined with three data sets and calculated by using Prism softwater (version 6.01, GraphPad).

SK-MEL-28 = experiment: as above; settings: Homo sapiens
Procedure: as §1, §4

RET (LC2/ad-CDC6) = experiment: as above; settings: 72 h
Procedure: as §1, §4

M-NFS-60 = experiment: Cancer cell proliferation inhibition, CCK-8, 72 hours
Procedure: as §1
M-NFS-60 cell line was cultured in the complete growth medium prepared by adding 10% FBS, 0.05 mM 2-mercaptoethanol and 62 ng of human M-CSF to RPMI. When the confluence reached 80% in T-75 flask, the cells were collected in a 50 ml tube for seeding, followed by centrifugation at 800 rpm for 5 minutes. The cells were suspended in 10 mL of growth medium. The cell number was counted by using a hematocytometer to determine the necessary cell number and the medium volume for seeding. The cells were seeded in a 96-well plate at the density of 20000 cells/well (200 μL/well), followed by stabilization in a 37° C. CO2 incubator, while the compounds of the present invention were prepared. The compounds of the present invention were serially diluted with DMSO at the ratio of 1/3 with setting the maximum concentration at 1968 nM, which were loaded in a new V-bottom 96-well plate, resulting in the preparation of total 11 concentrations including the DMSO control. The cells that had been placed in the incubator were taken out, to which the compounds of the present invention were added (2 μl/well). The plate treated with the compounds was cultured in a 37° C. CO2 incubator for 72 hours. 72 hours later, the plate treated with the compounds was taken out, to which CCK-8 solution was treated (20 μl/well). After well mixing, the plate was further cultured in a 37° C. CO2 incubator for 2 hours. Then, OD450 was measured by using a microplate reader. To obtain accurate results, the wells displaying bubbles were eliminated from the measurement.

FYN (MCP-1) = experiment: Cancer cell proliferation inhibition, MTS assay, 72 hours
Procedure: as §1, §4

IC50 (MDA-MB-231; Homo sapiens, MDA-MB-231, 72 h)	IC50 (A375; Homo sapiens, A-375, 72 h)	GI50 (T315I (Ba/F3))	IC50 (K562; Homo sapiens, K562, 72 h)	IC50 (Huh7)	IC50 (SK-MEL-28)	IC50 (RET (LC2/ad-CDC6))	IC50 (M-NFS-60)	IC50 (FYN (MCP-1))	IC50 (MDA-MB-231)	IC50 (A375)	IC50 (K562)	Compound
> 10000 nM	> 10000 nM	> 10000 nM	12 nM	> 50000 nM	> 10000 nM	–	–	–	–	–	–	Cc1ccc(C(=O)Nc2ccccc2F)cc1C#Cc1cnc2c(Nc3cnn(C)c3)cccn12 [Example 2, N-(2-fluorophenyl)-4-methyl-3-((8-((1-methyl-1H-pyrazol-4-yl)amino)imidazo[1,2-a]pyridin-3-yl)ethynyl)benzamide]
3190 nM	4080 nM	785 nM	131 nM	15200 nM	3720 nM	< 10000 nM	240 nM	–	–	–	–	Cc1ccc(C(=O)Nc2ccc(CN3CCN(C)CC3)c(C(F)(F)F)c2)cc1C#Cc1cnc2c(Nc3ccc(C(F)(F)F)cc3)cccn12 [Example 19, 4-methyl-N-(4-((4-methylpiperazin-1-yl)methyl)-3-(trifluoromethyl)phenyl)-3-((8-((4-(trifluoromethyl)phenyl)amino)imidazo[1,2-a]pyridin-3-yl)ethynyl)benzamide]
1650 nM	1850 nM	149 nM	15 nM	1850 nM	1480 nM	< 100 nM	–	–	–	–	–	CCN1CCN(Cc2ccc(NC(=O)c3ccc(C)c(C#Cc4cnc5c(Nc6ccc(C)cn6)cccn45)c3)cc2C(F)(F)F)CC1 [Example 21, N-(4-((4-ethylpiperazin-1-yl)methyl)-3-(trifluoromethyl)phenyl)-4-methyl-3-((8-((5-methylpyridin-2-yl)amino)imidazo[1,2-a]pyridin-3-yl)ethynyl)benzamide]
3600 nM	3520 nM	668 nM	45 nM	11300 nM	2630 nM	< 1000 nM	–	–	–	–	–	Cc1ccc(Nc2cccn3c(C#Cc4cc(C(=O)Nc5ccc(CN6CCN(C)CC6)c(C(F)(F)F)c5)ccc4C)cnc23)cc1 [Example 24, 4-methyl-N-(4-((4-methylpiperazin-1-yl)methyl)-3-(trifluoromethyl)phenyl)-3-((8-(p-toylamino)imidazo[1,2-a]pyridin-3-yl)ethynyl)benzamide]
3040 nM	3710 nM	619 nM	52 nM	17300 nM	2090 nM	< 1000 nM	–	–	–	–	–	CCN1CCN(Cc2ccc(NC(=O)c3ccc(C)c(C#Cc4cnc5c(Nc6ccc(C)cc6)cccn45)c3)cc2C(F)(F)F)CC1 [Example 25, N-(4-((4-ethylpiperazin-1-yl)methyl)-3-(trifluoromethyl)phenyl)-4-methyl-3-((8-(p-toylamino)imidazo[1,2-a]pyridin-3-yl)ethynyl)benzamide]
1010 nM	903 nM	831 nM	< 1 nM	70 nM	–	–	–	9830 nM	–	–	–	Cc1ccc(C(=O)Nc2ccc(CN3CCN(C)[C@H](C)C3)c(C(F)(F)F)c2)cc1C#Cc1cnc2c(Nc3cnn(CCCN(C)C)c3)cccn12 [Example 34, (R)-3-((8-((1-(3-(dimethylamino)propyl)-1H-pyrazol-4-yl)amino)imidazo[1,2-a]pyridin-3-yl)ethynyl)-N-(4-((3,4-dimethylpiperazin-1-yl)methyl)-3-(trifluoromethyl)phenyl)-4-methylbenzamide]
319 nM	249 nM	28.8 nM	< 1 nM	87.8 nM	–	> 10 nM	31.1 nM	–	–	–	–	Cc1ccc(C(=O)Nc2ccc(CN3CC[C@H](N(C)C)C3)c(C(F)(F)F)c2)cc1C#Cc1cnc2c(Nc3cnn(C)c3)cccn12 [Example 51, (S)—N-(4-((3-(dimethylamino)pyrrolidin-1-yl)methyl)-3-(trifluoromethyl)phenyl)-4-methyl-3-((8-((1-methyl-1H-pyrazol-4-yl)amino)imidazo[1,2-a]pyridin-3-yl)ethynyl)benzamide]
1300 nM	1390 nM	32.6 nM	8 nM	–	–	–	–	320 nM	–	–	–	COCCn1cc(Nc2cccn3c(C#Cc4cc(C(=O)Nc5cc(C(C)(C)C(F)(F)F)on5)ccc4C)cnc23)cn1 [Example 58, 3-((8-((1-(2-methoxyethyl)-1H-pyrazol-4-yl)amino)imidazo[1,2-a]pyridin-3-yl)ethynyl)-4-methyl-N-(5-(1,1,1-trifluoro-2-methylpropan-2-yl)isoxazol-3-yl)benzamide]
5700 nM	5160 nM	627 nM	20 nM	2180 nM	1440 nM	1000 nM	–	–	–	–	–	Cc1ccc(NC(=O)Nc2cccc(C(F)(F)F)c2)cc1C#Cc1cnc2c(Nc3cnn(C(C)C)c3)cccn12 [Example 83, 1-(3-((8-((1-isopropyl-1H-pyrazol-4-yl)amino)imidazo[1,2-a]pyridin-3-yl)ethynyl)-4-methylphenyl)-3-(3-(trifluoromethyl)phenyl)urea]
> 10000 nM	5040 nM	3070 nM	90 nM	5650 nM	4460 nM	1000 nM	1610 nM	–	–	–	–	Cc1ccc(NC(=O)Nc2cc(C(C)(C)C)on2)cc1C#Cc1cnc2c(Nc3cnn(C(C)C)c3)cccn12 [Example 84, 1-(5-(tert-butyl)isoxazol-3-yl)-3-(3-((8-((1-isopropyl-1H-pyrazol-4-yl)amino)imidazo[1,2-a]pyridin-3-yl)ethynyl)-4-methylphenyl)urea]
–	–	97.5 nM	–	–	–	–	–	5600 nM	755 nM	791 nM	< 1 nM	N-(4-((3-(dimethylamino)pyrrolidin-1-yl)methyl)-3-(trifluoromethyl)phenyl)-4-methyl-3-((8-((1-methyl-1H-pyrazol-4-yl)amino)imidazo[1,2-a]pyridin-3-yl)ethynyl)benzamide [Example 55]
